Tests used:
primary human AML cells = assay: Xenotransplantation of peptide-treated primary human AML cells into NSG mice; type: in vivo; conditions: 11 weeks after transplantation, cells treated with Pep-1 plus peptide
Procedure: FIGS. 12A-12F: Treatment of SALL4 peptide in primary human AML cells induces reduced cell viability in culture and impaired leukemic engraftment in vivo. (12A) Wild type peptide treatment reduces cell viability of human AML cells in culture, and this effect can be reversed in part by the PTEN inhibitor SF1670. 1×10^6 AML cells were treated with nothing (None), Pep-1 alone (Mock), or 20 μM wild type (wt), or scrambled peptide (scr), or wt peptide with 400 nM PTEN inhibitor SF1670 (wt+inh) or with 100 nM TSA for 48 hours, as described in the Methods. Cell viability of untreated primary AML cells is set as 100. […] Percentage of human CD45+ cells engrafted in BM, spleen (SP) and peripheral blood (PB) was determined by flow cytometry. […]
NSG (NOD.Cg-Prkdcscid Il2rgtm 1Wjl/SzJ, The Jackson Laboratory, ME, USA) mice were bred and maintained in the Children's Hospital Boston animal facility. […] The percentage of human CD45+ cells was calculated as follows: % human CD45+ cells=No. human CD45+ cells/(No. human CD45+ cells+No. mouse CD45+ cells)×100. […]
Subsequently tested was the ability of peptide treatment to inhibit the development of AML in vivo utilizing xenografts. […] In addition, the engraftment of human CD45+ cells was evaluated by flow cytometry (FIG. 12E). […]

HDAC1 and HDAC2 = assay: Anti-FITC pull-down of FITC-labeled peptides from SNU-398 nuclear extracts, Western blot for HDAC1/HDAC2; type: binding, human; conditions: anti-FITC IP
Procedure: For the pull down assay FITC-labeled version of the peptides and anti-FITC antibody (Santa Kruz, Calif.) was used. The antibody was immobilized covalently on the surface of Dinabeads (Invitrogen). The magnetic beads were than used in the pull down reaction according to the instruction of the manufacturer with the following minor modifications: 1 mM DTT, 0.1 mM NaF, 1 mM PMSF, 1 mM Na orthovanadate, and 1:100 final dilution of protease inhibitor, (Sigma Co.) was added to the extraction buffer. The NaCl concentration was optimized to 100 mM. Eluted proteins were submitted to Western blotting using standard procedure and the protein bands were visualized using antibodies to HDAC1 and 2 (Sigma)
Next tested was whether this wt 12-AA could compete with SALL4 in interacting with NuRD. A hepatocellular carcinoma cell line SNU-398 with abundant SALL4 expression was chosen for the following groups of experiences. Whether the wt 12-AA or its control (Mut and Scr) can bind to HDAC1 and HDAC2, the two NuRD components, was first evaluated. […] The histone deacetylase activity of the peptide pull-down complex was then measured using a Fluorescent Assay kit (Active Motif) (FIG. 1D). The active enzymatic activity of the HDACs tested by this assay corresponds to the amount of the HDAC proteins in the sample.
First evaluated was whether the wild type peptide or the mutant or scrambled controls could bind to HDAC1 and HDAC2, which comprise part of the NuRD complex 38. The hepatocellular carcinoma (HCC) cell line SNU-398 expresses abundant amount of SALL4 and was chosen for the following 9 experiments. […] To test this possibility, the histone deacetylase activity of the peptide pull-down complex was measured using a fluorescent assay kit (FIG. 8C). The active enzymatic activity of the HDACs tested by this assay corresponded to the amount of the HDAC proteins in the sample.

H-MSRRKQAKPQHI-OH [wt peptide, MSRRKQAKPQHI]
average engraftment of human CD45+ cells in bone marrow (primary human AML cells): 0.5% | HDAC1 and HDAC2 detected in peptide pull-down (HDAC1 and HDAC2; listed as wild type peptide): easily detected | HDAC1 and HDAC2 detected in peptide pull-down (HDAC1 and HDAC2; listed as wt): detected

Scr peptide: same 12 amino acids as the wt peptide, but in a scrambled sequence; negative control (SRMRQKIHPKIQ) [reference compound]
average engraftment of human CD45+ cells in bone marrow (primary human AML cells): greater than 74% | HDAC1 and HDAC2 detected in peptide pull-down (HDAC1 and HDAC2): never | HDAC1 and HDAC2 detected in peptide pull-down (HDAC1 and HDAC2; listed as scrambled peptide): undetectable

Reference: patent publication US9365851B2, “Spalt-like transcription factor 4 (SALL4) and uses thereof” (National University of Singapore, priority 2011, dated 2016)
